Tests used:
M4 muscarinic receptor = biological target: T1, M4 muscarinic receptor (Homo sapiens, UniProt P08173); test: Functional mobilization of intracellular calcium (FLIPR, Fluo-3), M4-CHO cells; assay type: cell-based; conditions: compound nos. 1-454; for Emax: 100% efficacy is the maximum response obtained with the Carbachol control, read-out: M4 Efficacy; for M4 Activity: M4-CHO cells, calcium mobilization
T1 construct: expressed in transfected cells; host or cells: CHO cells (M4-CHO, under puromycin, zeocin and blasticidin selection)
T1 sequence (P08173 1-479): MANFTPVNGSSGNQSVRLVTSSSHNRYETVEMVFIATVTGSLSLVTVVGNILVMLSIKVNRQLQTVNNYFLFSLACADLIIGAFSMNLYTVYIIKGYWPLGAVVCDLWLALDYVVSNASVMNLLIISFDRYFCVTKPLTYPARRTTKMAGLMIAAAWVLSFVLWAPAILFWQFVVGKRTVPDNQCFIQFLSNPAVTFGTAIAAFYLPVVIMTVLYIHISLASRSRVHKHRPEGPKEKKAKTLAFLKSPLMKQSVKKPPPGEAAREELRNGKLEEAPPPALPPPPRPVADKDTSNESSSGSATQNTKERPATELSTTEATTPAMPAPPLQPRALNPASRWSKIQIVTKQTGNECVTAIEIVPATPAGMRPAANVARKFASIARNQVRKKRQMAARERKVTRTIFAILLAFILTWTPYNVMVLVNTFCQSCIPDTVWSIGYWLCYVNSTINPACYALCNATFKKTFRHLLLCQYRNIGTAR
Procedure, shortened: (§1)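 Fluo-3 read-out, ex 488/em 540 nm, 60 sec on FLIPR 3. For agonist mode, compound added directly; for inhibition, 15 min compound pre-incubation before carbachol at EC80 (added as a 3× solution), or co-application. Buffer pH 7.4 with 1 mM probenecid; DMSO 0.5%.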

M1 muscarinic receptor = biological target: T2, M1 muscarinic receptor (Homo sapiens, UniProt P11229); test: Functional mobilization of intracellular calcium (FLIPR, Fluo-3), M1-CHO cells; assay type: cell-based; conditions: compound nos. 1-454; for Emax: 100% efficacy is the maximum response obtained with the Carbachol control, read-out: M1 Efficacy; for M1 Activity: M1-CHO cells, calcium mobilization
T2 construct: expressed in transfected cells; host or cells: CHO cells (M1-CHO, under zeocin and G418 selection)
T2 sequence (P11229 1-460): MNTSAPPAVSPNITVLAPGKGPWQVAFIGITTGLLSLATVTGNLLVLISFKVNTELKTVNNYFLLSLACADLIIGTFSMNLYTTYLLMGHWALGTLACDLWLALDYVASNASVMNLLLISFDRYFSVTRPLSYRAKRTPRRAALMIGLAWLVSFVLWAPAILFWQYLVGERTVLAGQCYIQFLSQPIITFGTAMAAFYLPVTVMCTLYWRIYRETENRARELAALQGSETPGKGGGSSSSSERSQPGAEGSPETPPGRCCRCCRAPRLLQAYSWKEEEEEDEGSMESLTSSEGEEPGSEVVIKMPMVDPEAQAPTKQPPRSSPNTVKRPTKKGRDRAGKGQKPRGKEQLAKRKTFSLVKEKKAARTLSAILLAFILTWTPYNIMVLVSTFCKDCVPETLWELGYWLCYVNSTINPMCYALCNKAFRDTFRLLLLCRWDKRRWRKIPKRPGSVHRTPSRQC
Procedure, shortened: as §1

SMILES	Emax (M4 muscarinic receptor) [%]	M4 Activity (M4 muscarinic receptor)	Emax (M1 muscarinic receptor) [%]	M1 Activity (M1 muscarinic receptor)
CCOC(=O)N1CCC(N2CCC3(CC2)CN(C(C)=O)c2ccc(-c4cccnc4)cc23)CC1 [compound 234]	55 to 70	+++ (activity was measured to be less than or equal to 0.1 μM)	65 to 85	+++ (activity was measured to be less than or equal to 0.7 μM)
COC(=O)N1CC2(CCN(C3CC4CCC(C3)N4C(=O)OC)CC2)c2cc(F)ccc21 (centres unmarked) [compound 235]	55 to 70	+ (activity was measured to be greater than or equal to 4.0 μM)	65 to 85	++ (activity was measured to be between 0.7 μM and 3.0 μM)
CC(=O)N1CC2(CCN(C3CCC(C(F)(F)F)CC3)CC2)c2cc(F)ccc21 (centres unmarked) [compound 236]	55 to 70	++ (activity was measured to be between 0.1 μM and 4.0 μM)	65 to 85	+++ (activity was measured to be less than or equal to 0.7 μM)
O=C1CC2(CCN(C[C@@H]3C[C@H]4C=C[C@H]3C4)CC2)c2ccccc21 [compound 238]	< 55	+ (activity was measured to be greater than or equal to 4.0 μM)	< 65	+ (activity was measured to be greater than or equal to 3.0 μM)
Fc1ccc2c(c1)C1(CCN(CC3CCCCC3)CC1)CN2 [compound 239]	55 to 70	+ (activity was measured to be greater than or equal to 4.0 μM)	65 to 85	+ (activity was measured to be greater than or equal to 3.0 μM)
CC(=O)N1CC2(CCN(C3CCC[C@@H](C)C3)CC2)c2cc(F)ccc21 (some centres unmarked) [compound 240]	> 70	+ (activity was measured to be greater than or equal to 4.0 μM)	65 to 85	++ (activity was measured to be between 0.7 μM and 3.0 μM)
Cc1ccc2c(c1)C1(CCN(CC3CCC4CCC3C4)CC1)CN2 (centres unmarked) [compound 241]	> 70	+ (activity was measured to be greater than or equal to 4.0 μM)	< 65	++ (activity was measured to be between 0.7 μM and 3.0 μM)
O=C1CC2(CCN(C3CCCCCC3)CC2)c2ccccc2N1 [compound 242]	> 70	++ (activity was measured to be between 0.1 μM and 4.0 μM)	65 to 85	+++ (activity was measured to be less than or equal to 0.7 μM)
O=C(O[C@@H]1CCOC1)N1CC2(CCN(C3CC4CCC(C3)N4C(=O)O[C@@H]3CCOC3)CC2)c2cc(F)ccc21 (some centres unmarked) [compound 243]	55 to 70	+ (activity was measured to be greater than or equal to 4.0 μM)	65 to 85	+++ (activity was measured to be less than or equal to 0.7 μM)
c1ccc2c(c1)NCC21CCN(C2CCC3CCC2C3)CC1 (centres unmarked) [compound 244]	55 to 70	+ (activity was measured to be greater than or equal to 4.0 μM)	65 to 85	++ (activity was measured to be between 0.7 μM and 3.0 μM)
CCOC(=O)N1CCC(N2CCC3(CC2)CN(C(C)=O)c2ccc(C4CC4)cc23)CC1 [compound 245]	> 70	++ (activity was measured to be between 0.1 μM and 4.0 μM)	< 65	++ (activity was measured to be between 0.7 μM and 3.0 μM)
CC(C)C(=O)N(C)[C@H]1CC2(CCN(C[C@H]3C[C@H]4CC[C@H]3C4)CC2)c2ccccc21 [compound 246]	> 70	++ (activity was measured to be between 0.1 μM and 4.0 μM)	< 65	++ (activity was measured to be between 0.7 μM and 3.0 μM)
CC(C)(C)COC(=O)N1C2CCC1CC(N1CCC3(CC1)COc1ccc(F)cc13)C2 (centres unmarked) [compound 247]	> 70	+ (activity was measured to be greater than or equal to 4.0 μM)	65 to 85	++ (activity was measured to be between 0.7 μM and 3.0 μM)
CCOC(=O)N1CCC(N2CCC3(CC2)CN(CC(C)=O)c2ccc(F)cc23)CC1 [compound 249]	55 to 70	+ (activity was measured to be greater than or equal to 4.0 μM)	65 to 85	+ (activity was measured to be greater than or equal to 3.0 μM)
CCOC(=O)N1CCC(CN2CCC3(CC2)C[C@H](NC(C)=O)c2ccccc23)CC1 [compound 250]	55 to 70	+ (activity was measured to be greater than or equal to 4.0 μM)	65 to 85	++ (activity was measured to be between 0.7 μM and 3.0 μM)
CC(=O)N1CC2(CCN(C3CC[C@@H]4CC[C@@H]3C4)CC2)c2cc(F)ccc21 (some centres unmarked) [compound 251]	55 to 70	+ (activity was measured to be greater than or equal to 4.0 μM)	65 to 85	++ (activity was measured to be between 0.7 μM and 3.0 μM)
CCCOC(=O)N1CCC(N2CCC3(CC2)CN(C(C)=O)c2ccc(C)cc23)CC1 [compound 252]	55 to 70	+ (activity was measured to be greater than or equal to 4.0 μM)	< 65	+ (activity was measured to be greater than or equal to 3.0 μM)
CCOC(=O)N1CCC(N2CCC3(CC2)CN(C(C)=O)c2ccc(-c4ccc(C#N)cc4)cc23)CC1 [compound 253]	55 to 70	+ (activity was measured to be greater than or equal to 4.0 μM)	65 to 85	++ (activity was measured to be between 0.7 μM and 3.0 μM)
CCOC(=O)N1CCC(N2CCC3(CC2)CN(C(=O)C2CCC2)c2ccc(F)cc23)CC1 [compound 254]	55 to 70	+ (activity was measured to be greater than or equal to 4.0 μM)	65 to 85	+ (activity was measured to be greater than or equal to 3.0 μM)
CCNC(=O)N1CC2(CCN(C3CC4CCC(C3)N4C(=O)OCC)CC2)c2cc(F)ccc21 (centres unmarked) [compound 255]	< 55	+ (activity was measured to be greater than or equal to 4.0 μM)	< 65	+ (activity was measured to be greater than or equal to 3.0 μM)
CCOC(=O)N1CCC(CN2CCC3(CC2)CN(C(C)=O)c2ccc(Cl)cc23)CC1 [compound 256]	< 55	++ (activity was measured to be between 0.1 μM and 4.0 μM)	< 65	++ (activity was measured to be between 0.7 μM and 3.0 μM)
Clc1ccc2c(c1)C1(CCN(C3CCOCC3)CC1)CO2 [compound 257]	< 55	+ (activity was measured to be greater than or equal to 4.0 μM)	> 85	+ (activity was measured to be greater than or equal to 3.0 μM)
O=C(OC1CCCC1)N1C2CCC1CC(N1CCC3(CCc4ccccc43)CC1)C2 (centres unmarked) [compound 258]	< 55	+ (activity was measured to be greater than or equal to 4.0 μM)	65 to 85	+ (activity was measured to be greater than or equal to 3.0 μM)
O=C1Nc2ccccc2C12CCN(C1CC3CCC1C3)CC2 (centres unmarked) [compound 259]	< 55	+ (activity was measured to be greater than or equal to 4.0 μM)	65 to 85	+ (activity was measured to be greater than or equal to 3.0 μM)
CCOC(=O)N1CCC(N2CCC3(CC2)CN(C(=O)c2ccncc2)c2ccc(F)cc23)CC1 [compound 260]	< 55	+ (activity was measured to be greater than or equal to 4.0 μM)	65 to 85	+++ (activity was measured to be less than or equal to 0.7 μM)
CC(=O)N[C@H]1CC2(CCN(C3CCCCCCC3)CC2)c2ccccc21 [compound 261]	< 55	+ (activity was measured to be greater than or equal to 4.0 μM)	< 65	++ (activity was measured to be between 0.7 μM and 3.0 μM)

Reference: patent US7858635B2 (priority 2005, dated 2010)
